Source: US10259786B2, “Psychotropic agents and uses thereof” (LB PHARMACEUTICALS INC., priority 2016, dated 2019)

Experiments:
PCP-treated rats = experiment: Novel Object Recognition (NOR) assay, sub-chronic PCP; assay type: in vivo, rat; conditions: PO; for difference between novel and familiar object exploration time: 3 hours post-dose, all doses save one; for known object exploration behavior in rats treated with PCP: compared to untreated rats
Description: Efficacy of Compounds 102 and 103 was evaluated in rats in a Novel Object Recognition (NOR) assay, a well-established model recapitulating cognitive and negative aspects of the PANSS scale of schizophrenia. In this assay, animals were treated for several weeks with a low dose of phencyclidine (PCP) to impair the ability of the rat to discern between novel and familiar objects. Typically rats, like humans, would spend more time exploring a novel object than a familiar one.
Rats (n=10/group) were dosed with 2 mg/kg intraperitoneal twice a day (i.p., b.i.d.) for seven days followed by 7 days drug free. […] Novel object exploration time was measured for the test subjects from a sub-chronic PCP NOR study in rats (n=10/group). The differences in exploration time between novel (Tnovel¬) and familiar (Tfamliar) objects are depicted in FIG. 1A (*: p<0.05; and **: p<0.01).

D1 receptor = D1 receptor (Homo sapiens (Human), UniProt P21728); conditions: D1 receptor subtype; cited from earlier work
D4 receptor = D4 receptor (Homo sapiens (Human), UniProt P21917); conditions: D4 receptor subtype; cited from earlier work
D5 receptor = D5 receptor (Homo sapiens (Human), UniProt P21918); conditions: D5 receptor subtype; cited from earlier work
[1] = 2014 study, 30 psychiatric drugs tested; cited from earlier work

Chain of D4 receptor (P21917 whole entry): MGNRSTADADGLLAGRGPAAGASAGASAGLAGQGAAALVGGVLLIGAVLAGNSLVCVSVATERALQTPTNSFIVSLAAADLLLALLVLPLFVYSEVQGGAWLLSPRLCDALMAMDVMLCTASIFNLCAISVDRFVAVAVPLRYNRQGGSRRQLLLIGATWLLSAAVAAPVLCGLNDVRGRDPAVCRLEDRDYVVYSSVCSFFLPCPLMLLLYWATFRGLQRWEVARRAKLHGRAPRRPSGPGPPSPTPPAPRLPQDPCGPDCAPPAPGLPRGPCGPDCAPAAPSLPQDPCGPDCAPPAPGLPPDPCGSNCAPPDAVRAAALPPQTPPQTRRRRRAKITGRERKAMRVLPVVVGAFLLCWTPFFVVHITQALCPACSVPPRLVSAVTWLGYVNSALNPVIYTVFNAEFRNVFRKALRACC
Chain of D5 receptor (P21918 whole entry): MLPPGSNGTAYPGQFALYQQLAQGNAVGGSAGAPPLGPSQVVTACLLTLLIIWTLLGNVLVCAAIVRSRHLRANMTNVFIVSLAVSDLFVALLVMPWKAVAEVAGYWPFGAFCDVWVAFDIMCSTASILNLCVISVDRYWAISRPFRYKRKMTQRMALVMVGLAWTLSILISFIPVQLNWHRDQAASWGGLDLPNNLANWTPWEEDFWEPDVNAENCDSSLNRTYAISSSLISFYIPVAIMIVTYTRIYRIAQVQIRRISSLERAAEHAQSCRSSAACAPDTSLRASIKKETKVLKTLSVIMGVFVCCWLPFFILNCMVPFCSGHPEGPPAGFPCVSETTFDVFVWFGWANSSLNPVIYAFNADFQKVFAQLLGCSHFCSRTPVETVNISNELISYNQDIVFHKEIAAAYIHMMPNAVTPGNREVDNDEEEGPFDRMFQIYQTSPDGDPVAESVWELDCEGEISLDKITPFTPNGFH
Chain of D1 receptor (P21728 whole entry): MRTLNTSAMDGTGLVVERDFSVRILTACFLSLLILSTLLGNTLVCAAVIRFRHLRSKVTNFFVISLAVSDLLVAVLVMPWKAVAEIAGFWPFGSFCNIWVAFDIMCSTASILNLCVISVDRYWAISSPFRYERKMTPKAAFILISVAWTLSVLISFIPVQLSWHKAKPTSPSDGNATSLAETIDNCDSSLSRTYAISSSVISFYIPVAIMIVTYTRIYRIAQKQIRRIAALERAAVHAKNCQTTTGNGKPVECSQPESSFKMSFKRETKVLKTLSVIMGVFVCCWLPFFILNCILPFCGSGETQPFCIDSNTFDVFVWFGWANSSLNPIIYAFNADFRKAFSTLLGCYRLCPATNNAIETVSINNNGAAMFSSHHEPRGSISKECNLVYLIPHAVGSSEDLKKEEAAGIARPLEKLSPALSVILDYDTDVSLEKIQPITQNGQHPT

SMILES	difference between novel and familiar object exploration time (PCP-treated rats)	known object exploration behavior in rats treated with PCP (PCP-treated rats)	affinity (D1 receptor)	affinity (D4 receptor)	affinity (D5 receptor)	passive diffusion across a PAMPA membrane (Pe) [1]
CCN1CCC[C@H]1CNC(=O)c1cc(S(=O)(=O)CC)c(NC)cc1OC [Compound 103, ((S)-4-methylamino-N-((1-ethyl-2-pyrrolidinyl)methyl)-5-(ethylsulfonyl))-2-methoxybenzamide]	increased	able to restore known object exploration behavior in rats treated with PCP to levels similar to untreated rats	–	–	–	–
CCN1CCCC1CNC(=O)c1cc(S(=O)(=O)CC)c(NC)cc1OC (centres unmarked) [Compound 102]	increased	able to restore known object exploration behavior in rats treated with PCP to levels similar to untreated rats	–	–	–	–
CCN1CCCC1CNC(=O)c1cc(S(=O)(=O)CC)c(N)cc1OC (centres unmarked) [Amisulpride, 4-amino-N-(((1-ethyl-2-pyrrolidinyl)methyl)-5-(ethylsulfonyl))-2-methoxybenzamide]	–	–	without any affinity	without any affinity	without any affinity	lowest of 30 psychiatric drugs tested
